Data as given in the supplement of paper PMC10307832.

What was measured:
Assay in all cases: relative viability (nuclei count vs DMSO), 5 days (fraction); higher = more cells survive
[1] = tested on: EMC-BAC-2
How it was run: (§1)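 Lung cancer cell lines were seeded in 1536-well plates and dosed by pin tool the next day, with either a single drug or a fixed anchor-drug dose combined with five library-drug doses (not always all listed) spaced in √10 steps. Five days later, one step fixed the cells and stained their nuclei (final 0.05% Triton X-100, 1% formaldehyde, 1 ug/ml Hoechst), and nuclei were counted on 4× images. Relative viability is the nuclei count in treated wells divided by the count in vehicle wells, and each value is the median of duplicate plates.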

[2] = tested on: EPLC-272H
How it was run: as §1

[3] = tested on: H3255
How it was run: as §1

[4] = tested on: HOP-62
How it was run: as §1

[5] = tested on: LCLC-97TM1
How it was run: as §1

[6] = tested on: LXF-289
How it was run: as §1

[7] = tested on: NCI-H1563
How it was run: as §1

[8] = tested on: NCI-H1734
How it was run: as §1

[9] = tested on: NCI-H1915
How it was run: as §1

[10] = tested on: NCI-H1993
How it was run: as §1

[11] = tested on: NCI-H2009
How it was run: as §1

`O=c1cc(N2CCOCC2)oc2c(-c3cccc4c3sc3ccccc34)cccc12` + Cc1nc(NC(=O)N2CCC[C@H]2C(N)=O)sc1-c1ccnc(C(C)(C)C(F)(F)F)c1 [Alpelisib] (partner 2 µM) was tested, and the relative viability ([1]; first compound 0.01 µM) was 0.726, the relative viability ([1]; first compound 0.03162 µM) was 0.781 and the relative viability ([1]; first compound 0.1 µM) was 0.813. The relative viability ([1]; first compound 0.3162 µM) was 0.759, the relative viability ([1]; first compound 1 µM) was 0.722 and the relative viability ([2]; first compound 0.01 µM) was 0.955. The relative viability ([2]; first compound 0.03162 µM) was 0.957, the relative viability ([2]; first compound 0.3162 µM) was 1.03 and the relative viability ([2]; first compound 1 µM) was 0.891. It also gave a relative viability ([3]; first compound 0.01 µM) of 0.681, a relative viability ([3]; first compound 0.03162 µM) of 0.698 and a relative viability ([3]; first compound 0.1 µM) of 0.784. It also gave a relative viability ([3]; first compound 0.3162 µM) of 0.685, a relative viability ([3]; first compound 1 µM) of 0.768 and a relative viability ([4]; first compound 0.01 µM) of 1.08. It also gave a relative viability ([4]; first compound 0.03162 µM) of 0.958, a relative viability ([4]; first compound 0.1 µM) of 1.24 and a relative viability ([4]; first compound 0.3162 µM) of 1.19. The relative viability ([4]; first compound 1 µM) was 1.1, the relative viability ([5]; first compound 0.01 µM) was 0.287 and the relative viability ([5]; first compound 0.03162 µM) was 0.269. The relative viability ([5]; first compound 0.3162 µM) was 0.201, the relative viability ([5]; first compound 1 µM) was 0.244 and the relative viability ([6]; first compound 0.01 µM) was 1.05. It also gave a relative viability ([6]; first compound 0.03162 µM) of 1.03, a relative viability ([6]; first compound 0.1 µM) of 1.05 and a relative viability ([6]; first compound 0.3162 µM) of 1. The relative viability ([6]; first compound 1 µM) was 1.02, the relative viability ([7]; first compound 0.01 µM) was 0.917 and the relative viability ([7]; first compound 0.03162 µM) was 0.858. The relative viability ([7]; first compound 0.1 µM) was 0.93, the relative viability ([7]; first compound 0.3162 µM) was 0.833 and the relative viability ([7]; first compound 1 µM) was 0.844. It also gave a relative viability ([8]; first compound 0.01 µM) of 0.7, a relative viability ([8]; first compound 0.03162 µM) of 0.727 and a relative viability ([8]; first compound 0.1 µM) of 0.686. The relative viability ([8]; first compound 0.3162 µM) was 0.698, the relative viability ([8]; first compound 1 µM) was 0.623 and the relative viability ([9]; first compound 0.01 µM) was 1.08. For the same compound, the relative viability ([9]; first compound 0.03162 µM) was 1.04, the relative viability ([9]; first compound 0.1 µM) was 1.07 and the relative viability ([9]; first compound 0.3162 µM) was 1.04. It also gave a relative viability ([9]; first compound 1 µM) of 1.06, a relative viability ([10]; first compound 0.01 µM) of 0.658 and a relative viability ([10]; first compound 0.03162 µM) of 0.741. It also gave a relative viability ([10]; first compound 0.1 µM) of 0.797, a relative viability ([10]; first compound 0.3162 µM) of 0.791 and a relative viability ([10]; first compound 1 µM) of 0.722. For the same compound, the relative viability ([11]; first compound 0.01 µM) was 1.12, the relative viability ([11]; first compound 0.03162 µM) was 1.14 and the relative viability ([11]; first compound 0.1 µM) was 1.18. The relative viability ([11]; first compound 0.3162 µM) was 1.15 and the relative viability ([11]; first compound 1 µM) was 1.13.
